Key:
CD4 and P56^Lck = test: CD4 immunoprecipitation probed with anti-p56Lck; assay type: cell-based; settings: viable murine splenic enriched CD4+ T cells, 2 hours, 400 µM
Experimental: Cells, harvested after 2 hours of culture with or without MnTBAP, are resuspended in solubilization buffer containing 1% NP-40 (Sigma-Aldrich), 0.1 M (NH4)2SO4, 20 mM Tris (pH 7.5), 10% glycerol, 25 mM NaF (Sigma-Aldrich), 1 mM Na3VO4 (Thermo Fisher Scientific, Villebon-sur-Yvette, France) and 1x protease inhibitor mixture (Roche, Basel, Switzerland). After 30 minutes of incubation under gentle agitation, cell lysates are centrifuged at 14,000 x g for 30 minutes. Lysates are frozen in aliquots at -20°C or used immediately. Immunoprecipitation is performed by incubation overnight of lysates with rat anti-mouse CD4 (GK 1.5, Biolegend, San Diego, CA, USA) under gentle agitation at 4°C. The antigen-antibody complex is then added to Protein A/G resin slurry (Pierce, Thermo Fisher scientific), and incubated with gentle mixing for 2 hours at room temperature, and finally microcentrifuged for 30 seconds. The pellet is washed five times with solubilization buffer, and the immunoprecipitated material is eluted by incubating the complex for 2-5 minutes at 95-100°C in Laemmli sample buffer prepared without β-ME. […] Infrared fluorescence of the secondary antibodies was read on an Odyssey Imaging System, and quantification of bands was performed using the ImageStudio Lite software (LI-COR Biosciences).

[1] = test system: transgene-specific CD8^+ and CD4^+ T-cell responses; test: IM rAAV gene transfer: transgene-specific T-cell responses by IFN-γ ELISPOT; assay type: in vivo, C57BL/6 mice; settings: vs PBS
Experimental: (§1) MnTBAP (Calbiochem, San Diego, USA or Enzo Life Sciences, Farmingdale, USA) is dissolved in 75 mM NaOH to constitute a 20 mM stock solution. MnTBAP is dissolved in the complete medium, used for in vitro treatment, containing RPMI-1640 supplemented with 10% heat-inactivated fetal calf serum, 100 U/ml penicillin/streptomycin, 2 mM glutamax and 50 µM β-mercaptoethanol β-ME). Hypertonic medium, used to block clathrin dependent endocytosis, is complete medium supplemented with 0.45 M sucrose. For in vivo treatment, the stock solution is diluted with PBS and administered at 80 mg/kg intraperitoneally daily during five days. Control animals are injected with equivalent volume of PBS.
Intramuscular (IM) injection: Two hours post first intraperitoneal (IP) injection of MnTBAP, mice are anesthetized by IP injection of xylazine (10 mg/kg) and ketamine (100 mg/kg) and 25 µl of a rAAV2/1 CMV SGCA HY viral preparation containing 2.5.10^9 vg is injected in the left tibialis anterior muscle (TA). Controls are injected with PBS. […] Spleens are harvested to analyze transgene-specific T cell response.
Spleens are harvested to analyze the cellular immune anti-transgene response by T-cell cytokine response assay. Multiscreen-HA Assay System 96-well Filtration plates (Merck) are coated overnight with 2.5 µg/ml of anti-mouse IFN-γ purified mAb (eBiosciences) at 4°C, washed, and then blocked with RPMI 1640 medium (Life Technologies, Saint-Aubin, France) supplemented with 10% heat inactivated fetal bovine serum (FCS), 100U/ml penicillin/streptomycin (Thermo Fisher Scientific) and 2mM GlutaMAXTM-I (Life technologies) for 2 hours at 37°C. Plates are washed three times with RPMI 1640 medium without FCS. […] Spots are counted using an AID reader (Ceipheid Benelux, Louven, Belgium). Spot forming units (SFU) per million cells for each mouse are calculated as the average value of duplicate measures after subtraction of background values obtained with in vitro unstimulated splenocytes.

[2] = test system: humoral response against capsid; test: Anti-rAAV1 IgG titers by ELISA after IV rAAV and readministration; assay type: in vivo, C57BL/6 mice; settings: for specific anti-rAAV IgG: 80 mg/kg IP daily 5 days, vs control group
Experimental: as §1
Intravenous (IV) injection: Two hours post first IP injection of MnTBAP, mice are anesthetized by IP injection of xylazine (10 mg/kg) and ketamine (100 mg/kg) and 200 µl of a rAAV2/1 CMV SGCA HY viral preparation containing 2.5.10^9 vg is injected into retro orbital sinus or into tail vein. Controls are injected with PBS. Serum samples are harvested at D21 and D28 post vector injection to analyze capsid-specific humoral response.
Readministration protocol: After the initial IV injection of rAAV2/1 CMV SGCA HY vector at D0 (two hours post first IP injection of MnTBAP) the second rAAV1 injection (2.10^9 vg of rAAV2/1 CMV mSeAP) is performed 28 days later in the left TA muscle. Mice are followed up to 93 days after readministration to analyze capsid-specific humoral response and to measure circulating mSeAP from serum samples. Mice are killed 93 days after second injection of vector. Left and right TA muscles are harvested for histological and enzymatic assay.
rAAVl-specific serum antibody titers are evaluated by ELISA. […] Reaction is stopped with an H2SO4 solution and the optical density at 450 nm is determined using a […] (Discovery HT-R, BioServ, Thiais, France) with KC4 software. The area under the curve (AUC) values obtained from the optical densities at four dilution points are calculated for statistical analysis using GraphPad Prism software (Logi Labo, Paris, France).

[3] = eight days post vector injection

O=C(O)c1ccc(-c2c3nc(c(-c4ccc(C(=O)O)cc4)c4ccc([n-]4)c(-c4ccc(C(=O)O)cc4)c4nc(c(-c5ccc(C(=O)O)cc5)c5ccc2[n-]5)C=C4)C=C3)cc1.[Mn+3] [MnTBAP, manganese [III] tetrakis (4-benzoic acid) porphyrin]
link between CD4 and P56^Lck (CD4 and P56^Lck): disruption of CD4 and P56^Lck is observed | IFN-γ response of transgene specific CD4^+ T cells [1, 3]: significantly decreased | IFN-γ response of transgene specific CD8^+ T cells [1, 3]: no significant differences | IFN-γ response of transgene specific CD8^+ T cells ([1]; fifteen days post vector injection): significantly decreased | specific anti-rAAV IgG ([2]; Day 21 post IV vector injection): no or significantly less specific anti-rAAV IgG | specific anti-rAAV IgG ([2]; Day 28 post IV vector injection): no or significantly less specific anti-rAAV IgG | specific anti-rAAV IgG titer ([2]; serum 10 days after vector readministration in TA (28 days post first injection), vs PBS): decrease of specific anti-rAAV IgG titer
